Measurements from patent US20250099433A1, “COMPOSITION AND METHOD FOR TREATMENT OF GRAM NEGATIVE BACTERIAL INFECTION” (The Research Foundation for the State University of New York, priority 2021, published 2025).
Converted amounts (≈) assume the structure as drawn. “And” between values parts separate entries of the source, which are not always exact repeats. Identical values can stand only once.

Tests used:
[1] = test system: E. coli strain (K-12, MG1655); test: MIC by microbroth dilution, wild-type E. coli; type: cell-based, Escherichia coli; conditions: wild-type E. coli K-12 MG1655
[2] = molecular target: LpxC from Aquifex aeolicus (aaLpxC) (Aquifex aeolicus (strain VF5), UniProt O67648); conditions: cited from earlier work
[3] = test system: wild-type E. coli (K-12 MG1655); test: Post-antibiotic effect (PAE) in wild-type E. coli; type: cell-based, Escherichia coli; conditions: 1:1000 dilution; for PAE (h) 1x, Wild-type: 1xMIC for 1 h; for PAE (h) 4x, Wild-type: 4xMIC for 1 h; for PAE (h) 16x, Wild-type: 16xMIC for 1 h
Text: FIG. 4. Post-antibiotic effect of the ecLpxC inhibitors on wild-type and FabZ* E. coli. […] PAE data for wild-type E. coli are in panels (a) PT805, (c) PT810 and (e) CHIR-090, and for FabZ* E. coli in (b) PT805, (d) PT810 and (f) CHIR-090.
PAE data for wild-type E. coli are in panels (a) PT805, (c) PT810 and (e) CHIR-090, and for FabZ* E. coli in (b) PT805, (d) PT810 and (f) CHIR-090.

[4] = test system: wild-type E. coli and FabZ* E. coli; test: Time kill assays in E. coli; conditions: 4xMIC (16xMIC in FIG. 3), CaMH media, 37° C.
Experimental: Each time point was performed in duplicate or triplicate and the entire experiment was performed in triplicate. The data points in the figure are the mean values from the independent measurements and the error bars represent the standard deviation from the mean.
The antimicrobial activity of the compounds was examined. […] The post-antibiotic effect (PAE) of the inhibitors was measured by monitoring the regrowth of bacteria following compound washout. […] Bacterial regrowth was monitored by plating samples as a function of time after wash-out and enumerating CFUs.

[5] = molecular target: ecLpxC (Escherichia coli (strain K12), UniProt P0A725); type: binding; conditions: residence time on ecLpxC at 25° C., displacement by fluorescent ligand
Experimental: Compounds were preincubated with ecLpxC and then mixed with a fluorescent LpxC inhibitor PT900.

[6] = test system: FabZ*, hyperactive FabZ strain (L85P); test: microbe, parasite or virus in culture; type: cell-based, Escherichia coli
[7] = test system: wild-type E. coli (K12 MG1655); test: PAE in wild-type E. coli in the presence of sub-MIC azithromycin; type: cell-based, Escherichia coli; conditions: 16xMIC, 37° C.; for PAE (h) (sub-MIC AZ) 16x(0.2): then media with 0.2xMIC azithromycin; for PAE (h) (sub-MIC AZ) 16x(0.4): then media with 0.4xMIC azithromycin
Text: FIG. 6. Post-antibiotic effect in the presence of sub-MIC azithromycin.
The PAE measurements were repeated for wild-type E. coli in the presence of sub-MIC levels of the protein synthesis inhibitor azithromycin.

[8] = test system: FabZ* E. coli; type: cell-based, Escherichia coli; conditions: 1:1000 dilution; for PAE (h) 1x, FabZ*: 1xMIC for 1 h; for PAE (h) 4x, FabZ*: 4xMIC for 1 h; for PAE (h) 16x, FabZ*: 16xMIC for 1 h
Text: FIG. 4. Post-antibiotic effect of the ecLpxC inhibitors on wild-type and FabZ* E. coli.
This included use of an E. coli strain (FabZ*) containing a hyperactive mutant of the fatty acid biosynthesis O-hydroxyacyl-ACP enzyme (FabZ), and determination of PAEs for wild-type E. coli in the presence of sub-MIC concentrations of macrolides.

[9] = molecular target: LpxC from E. coli (Escherichia coli (strain K12), UniProt P0A725); conditions: cited from earlier work
[10] = test system: P. aeruginosa PAO1; test: MIC by microbroth dilution, P. aeruginosa PAO1; conditions: Pseudomonas aeruginosa, PAO1, read-out: MIC (μM) (PAO1)
[11] = molecular target: paLpxC (Pseudomonas aeruginosa (strain ATCC 15692 / DSM 22644 / CIP 104116 / JCM 14847 / LMG 12228 / 1C / PRS 101 / PAO1), UniProt P47205); test: biochemical; type: binding
[12] = test system: efflux-pump mutant strain (ΔMexABCDXY) (paEP); test: MIC by microbroth dilution, efflux-pump mutant P. aeruginosa; conditions: Pseudomonas aeruginosa, read-out: MIC (μM) (paEP)
Text: Bacterial Strains. […] The efflux-pump deficient P. aeruginosa strain (ΔMexABCDXY), N150, was derived from PAO1.
Minimum Inhibitory Concentration (MIC) Measurements.

[13] = in vivo; cited from earlier work

Chain of paLpxC (P47205 1-299): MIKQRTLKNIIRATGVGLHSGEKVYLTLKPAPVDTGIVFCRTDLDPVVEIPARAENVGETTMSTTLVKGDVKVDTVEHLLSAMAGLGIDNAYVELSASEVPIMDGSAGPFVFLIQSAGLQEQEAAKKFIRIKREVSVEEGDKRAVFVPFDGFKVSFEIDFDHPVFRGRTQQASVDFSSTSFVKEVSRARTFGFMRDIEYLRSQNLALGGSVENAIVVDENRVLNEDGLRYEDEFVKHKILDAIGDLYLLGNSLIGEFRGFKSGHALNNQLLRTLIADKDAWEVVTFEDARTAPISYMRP
Chain of LpxC from E. coli (P0A725 whole entry): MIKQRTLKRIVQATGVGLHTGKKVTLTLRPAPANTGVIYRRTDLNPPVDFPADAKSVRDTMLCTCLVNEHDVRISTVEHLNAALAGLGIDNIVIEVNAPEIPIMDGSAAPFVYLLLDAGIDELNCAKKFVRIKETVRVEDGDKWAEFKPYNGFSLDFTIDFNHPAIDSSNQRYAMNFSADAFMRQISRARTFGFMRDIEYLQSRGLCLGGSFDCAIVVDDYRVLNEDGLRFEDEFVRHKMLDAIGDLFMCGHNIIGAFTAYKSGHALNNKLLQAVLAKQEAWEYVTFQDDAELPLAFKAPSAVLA
Chain of LpxC from Aquifex aeolicus (aaLpxC) (O67648 whole entry): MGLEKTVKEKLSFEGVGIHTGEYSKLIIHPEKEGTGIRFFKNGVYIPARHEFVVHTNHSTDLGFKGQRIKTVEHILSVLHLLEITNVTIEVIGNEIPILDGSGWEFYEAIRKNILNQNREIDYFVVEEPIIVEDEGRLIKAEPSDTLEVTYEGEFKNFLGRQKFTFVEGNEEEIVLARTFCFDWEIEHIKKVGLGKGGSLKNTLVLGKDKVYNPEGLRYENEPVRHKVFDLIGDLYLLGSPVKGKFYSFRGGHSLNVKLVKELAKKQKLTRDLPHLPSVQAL

SMILES	PAE (h) 1x, Wild-type [3] [h]	PAE (h) 4x, Wild-type [3] [h]	PAE (h) 16x, Wild-type [3] [h]	reduction of the starting log CFU/mL of the bacterial culture [4]	tR [5] [min]	PAE (h) (sub-MIC AZ) 16x(0.2) [7]	PAE (h) (sub-MIC AZ) 16x(0.4) [7]	PAE (h) 1x, FabZ* [8] [h]	PAE (h) 4x, FabZ* [8]	PAE (h) 16x, FabZ* [8] [h]	also measured
C[C@@H](O)[C@H](NC(=O)c1ccc(C#Cc2ccc(CN3CCOCC3)cc2)cc1)C(=O)NO [CHIR-090]	0	0	0	greater than 3 logs	66 ± 30	2.8 ± 0.3	3.7 ± 0.2	0.5 ± 0.1	1.34 ± 0.04 h and 1.3 ± 0.3 h	2.4 ± 0.2	MIC [1]: 0.62 µM (≈ 0.271 µg/mL); residence time on aaLpxC [2]: > 24 h; MIC (μM) FabZ* ([6]; hyperactive FabZ strain (L85P)): 0.010 µM (≈ 0.00437 µg/mL)
CC(O)(C(F)F)C(NC(=O)c1ccc(C#CC#Cc2ccc(N)cc2)cc1)C(=O)NO (stereo not drawn) [LPC-058]	–	–	–	–	–	–	–	–	–	–	residence time on LpxC from E. coli [9]: ~12 h
CC(CCn1ccc(-c2ccc(-c3cn(Cc4ccccc4)nn3)cc2)cc1=O)(C(=O)NO)S(C)(=O)=O (racemic) [PT810, 4-(4-(4-(1-Benzyl-1H-1,2,3-triazol-4-yl)phenyl)-2-oxopyridin-1(2H)-yl)-N-hydroxy-2-methyl-2-(methylsulfonyl)butanamide]	0	0	0	greater than 3 logs	6 ± 3	1.9 ± 0.8	2.6 ± 0.8	0.7 ± 0.2	0.76 ± 0.19 h and 0.8 ± 0.2 h	0.9 ± 0.2	MIC ([1]; Escherichia coli): 0.17 µM (≈ 0.0887 µg/mL); MIC [10]: 12.5 µM (≈ 6.52 µg/mL); MIC ([6]; Escherichia coli, read-out: MIC (μM) FabZ*): 0.08 µM (≈ 0.0417 µg/mL); Ki ([11]; 37° C., fluorescence competition): 0.0106 ± 0.0089 nM; tR (min) Fluorescence assay ([11]; 37° C., tR = 1/koff): 57 min and 57.3 ± 18.4 min; koff ([11]; read-out: Koff (s^−1)): 0.00032 ± 0.0001 s⁻¹; kon ([11]; read-out: Kon (μM^−1s^−1)): 43.8 ± 31.7 µM⁻¹ s⁻¹; MIC [12]: 0.78 µM (≈ 0.407 µg/mL)
CC(C)(N)[C@H](NC(=O)c1ccc(C#CC#C[C@@H]2C[C@H]2CO)cc1)C(=O)NO [ACHN-975]	–	–	–	–	–	–	–	–	–	–	toxicity in clinical trials [13]: dose-limiting cardiovascular toxicity
